Data published in patent US8791118B2, “Pyridopyrazines as highly selective ras-Raf-Mek-Erk signal transduction pathway inhibitors” (Aeterna Zentaris GmbH, priority 2011, dated 2014).

First: Cc1cc(O)ccc1-c1cnc2ccc(NC(=O)NCCCCc3ccccc3)nc2n1 [Compound 106, 1-[3-(4-Hydroxy-2-methyl-phenyl)-pyrido[2,3-b]pyrazin-6-yl]-3-(4-phenyl-butyl)-urea]
Second: Cc1ccccc1-c1cnc2ccc(NC(=O)NCCCCc3ccccc3)nc2n1 [Compound 120, 1-(4-Phenyl-butyl)-3-(3-o-tolyl-pyrido[2,3-b]pyrazin-6-yl)-urea]
The melting point of the first is higher: 207 to 210 °C for the first, 158 to 160 °C for the second.

Compared with `CCCn1cc(-c2cnc3ccc(NC(=O)NCCCC(C)(C)c4ccccc4)nc3n2)cn1` [Compound 100, 1-(4-Methyl-4-phenyl-pentyl)-3-[3-(1-propyl-1H-pyrazol-4-yl)-pyrido[2,3-b]pyrazin-6-yl]-urea], `O=C(NCCCCc1ccccc1)Nc1ccc2ncc(-c3ccoc3)nc2n1` [Compound 152, 1-(3-Furan-3-yl-pyrido[2,3-b]pyrazin-6-yl)-3-(4-phenyl-butyl)-urea] is higher in melting point: 205 to 207 °C for the first, 212 to 216 °C for the second.

First: COc1cc(Nc2cnc3ccc(NC(=O)NCCCCc4ccccc4)nc3n2)cc(O)c1OC [Compound 141, 1-[3-(3-Hydroxy-4,5-dimethoxy-phenylamino)-pyrido[2,3-b]pyrazin-6-yl]-3-(4-phenyl-butyl)-urea]
Second: COc1cc(Nc2cnc3ccc(NC(=O)NCCCCc4ccccc4)nc3n2)cc(OC)c1OC [Compound 139, 1-(4-Phenyl-butyl)-3-[3-(3,4,5-trimethoxy-phenylamino)-pyrido[2,3-b]pyrazin-6-yl]-urea]
The melting point of the first is lower: 136 to 139 °C for the first, 223 to 225 °C for the second.

Compared with `O=C(NCCCCc1ccccc1)Nc1ccc2ncc(-c3ccc(CO)cc3)nc2n1` [Compound 182, 1-[3-(4-Hydroxymethyl-phenyl)-pyrido[2,3-b]pyrazin-6-yl]-3-(4-phenyl-butyl)-urea], `CC(=O)Oc1ccc(-c2cnc3ccc(NC(=O)NCCCCc4ccccc4)nc3n2)cc1` [Compound 107, Acetic acid 4-{6-[3-(4-phenyl-butyl)-ureido]-pyrido[2,3-b]pyrazin-3-yl}-phenyl ester] is higher in melting point: 213 to 215 °C for the first, 220 °C for the second.

First: N#Cc1cccc(-c2cnc3ccc(NC(=O)NCCCCc4ccccc4)nc3n2)c1 [Compound 138, 1-[3-(3-Cyano-phenyl)-pyrido[2,3-b]pyrazin-6-yl]-3-(4-phenyl-butyl)-urea]
Second: O=C(NCCCCc1ccccc1)Nc1ccc2ncc(-c3cccc(O)c3)nc2n1 [Compound 104, 1-[3-(3-Hydroxy-phenyl)-pyrido[2,3-b]pyrazin-6-yl]-3-(4-phenyl-butyl)-urea]
The melting point of the first is higher: 237 to 240 °C for the first, 226 to 228 °C for the second.

First: Cc1n[nH]c(C)c1-c1cnc2ccc(NC(=O)NCCCCc3ccccc3)nc2n1 [Compound 91, 1-[3-(3,5-Dimethyl-1H-pyrazol-4-yl)-pyrido[2,3-b]pyrazin-6-yl]-3-(4-phenyl-butyl)-urea]
Second: COc1ncccc1-c1cnc2ccc(NC(=O)NCCCCc3ccccc3)nc2n1 [Compound 146, 1-[3-(2-Methoxy-pyridin-3-yl)-pyrido[2,3-b]pyrazin-6-yl]-3-(4-phenyl-butyl)-urea]
The melting point of the first is higher: 299 to 300 °C for the first, 194 to 197 °C for the second.

First: CCCNc1cnc2ccc(NC(=O)NCCCCc3ccccc3)nc2n1 [Compound 119, 1-(4-Phenyl-butyl)-3-(3-propylamino-pyrido[2,3-b]pyrazin-6-yl)-urea]
Second: CN1CCN(c2cnc3ccc(NC(=O)NCCCCc4ccccc4)nc3n2)CC1 [Compound 93, 1-[3-(4-Methyl-piperazin-1-yl)-pyrido[2,3-b]pyrazin-6-yl]-3-(4-phenyl-butyl)-urea]
The melting point of the first is lower: 118 to 120 °C for the first, 181 to 183 °C for the second.

First: O=C(NCCCCc1ccccc1)Nc1ccc2ncc(-c3cc(Cl)c(O)c(Cl)c3)nc2n1 [Compound 103, 1-[3-(3,5-Dichloro-4-hydroxy-phenyl)-pyrido[2,3-b]pyrazin-6-yl]-3-(4-phenyl-butyl)-urea]
Second: O=C(NCCCCc1ccccc1)Nc1ccc2ncc(-c3ccc(O)c(Cl)c3)nc2n1 [Compound 186, 1-[3-(3-Chloro-4-hydroxy-phenyl)-pyrido[2,3-b]pyrazin-6-yl]-3-(4-phenyl-butyl)-urea]
The melting point of the first is higher: 271 to 273 °C for the first, 241 to 243 °C for the second.

First: CCOc1ccccc1-c1cnc2ccc(NC(=O)NCCCCc3ccccc3)nc2n1 [Compound 102, 1-[3-(2-Ethoxy-phenyl)-pyrido[2,3-b]pyrazin-6-yl]-3-(4-phenyl-butyl)-urea]
Second: O=C(NCCCCc1ccccc1)Nc1ccc2ncc(-c3ccccc3O)nc2n1 [Compound 133, 1-[3-(2-Hydroxy-phenyl)-pyrido[2,3-b]pyrazin-6-yl]-3-(4-phenyl-butyl)-urea]
The melting point of the first is lower: 173 to 175 °C for the first, 247 to 248 °C for the second.

`COc1ccc(-c2cnc3ccc(NC(=O)N[C@H](C)CCCc4ccccc4)nc3n2)cc1O` [Compound 148, 1-[3-(3-Hydroxy-4-methoxy-phenyl)-pyrido[2,3-b]pyrazin-6-yl]-3-((R)-1-methyl-4-phenyl-butyl)-urea] and `COc1ccc(-c2cnc3ccc(NC(=O)N[C@H](C)CCCc4ccccc4)nc3n2)cc1OC` [Compound 98, 1-[3-(3,4-Dimethoxy-phenyl)-pyrido[2,3-b]pyrazin-6-yl]-3-((R)-1-methyl-4-phenyl-butyl)-urea] cannot be ordered by melting point: 196 to 198 °C for the first, 195 to 197 °C for the second.

First: COc1ccc(-c2cnc3ccc(NC(=O)NCCCCc4ccccc4)nc3n2)c(OC)c1OC [Compound 92, 1-(4-Phenyl-butyl)-3-[3-(2,3,4-trimethoxy-phenyl)-pyrido[2,3-b]pyrazin-6-yl]-urea]
Second: COc1ccc(-c2cnc3ccc(NC(=O)NCCCCc4ccccc4)nc3n2)cc1O [Compound 151, 1-[3-(3-Hydroxy-4-methoxy-phenyl)-pyrido[2,3-b]pyrazin-6-yl]-3-(4-phenyl-butyl)-urea]
The melting point of the first is lower: 135 to 138 °C for the first, 230 to 232 °C for the second.

Compared with `COc1ccc(CCCCNC(=O)Nc2ccc3ncc(-c4cnn(C)c4)nc3n2)cc1` [Compound 115, 1-[4-(4-Methoxy-phenyl)-butyl]-3-[3-(1-methyl-1H-pyrazol-4-yl)-pyrido[2,3-b]pyrazin-6-yl]-urea], `CC(C)(C)C(=O)Oc1ccc(-c2cnc3ccc(NC(=O)NCCCCc4ccccc4)nc3n2)cc1` [Compound 135, 2,2-Dimethyl-propionic acid 4-{6-[3-(4-phenyl-butyl)-ureido]-pyrido[2,3-b]pyrazin-3-yl}-phenyl ester] is higher in melting point: 195 to 196 °C for the first, 225 °C for the second.

First: Cc1c(-c2cnc3ccc(NC(=O)NCCCCc4ccccc4)nc3n2)cnn1-c1ccccc1 [Compound 113, 1-[3-(5-Methyl-1-phenyl-1H-pyrazol-4-yl)-pyrido[2,3-b]pyrazin-6-yl]-3-(4-phenyl-butyl)-urea]
Second: C[C@H](CCCc1ccccc1)NC(=O)Nc1ccc2ncc(-c3ccc(O)cc3)nc2n1 [Compound 147, 1-[3-(4-Hydroxy-phenyl)-pyrido[2,3-b]pyrazin-6-yl]-3-((R)-1-methyl-4-phenyl-butyl)-urea]
The melting point of the first is lower: 224 to 226 °C for the first, 226 to 229 °C for the second.

`C[C@H](CCCc1ccccc1)NC(=O)Nc1ccc2ncc(-c3ccoc3)nc2n1` [Compound 149, 1-(3-Furan-3-yl-pyrido[2,3-b]pyrazin-6-yl)-3-((R)-1-methyl-4-phenyl-butyl)-urea] gave a melting point of 218 to 220 °C.

In the case of `O=C(NCCCCc1ccccc1)Nc1ccc2ncc(-c3ccn[nH]3)nc2n1` [Compound 105, 1-(4-Phenyl-butyl)-3-[3-(2H-pyrazol-3-yl)-pyrido[2,3-b]pyrazin-6-yl]-urea], the melting point is reported as 280 °C (dec.).
